Experimental findings from patent publication US20090137549A1, “Novel compounds useful for the treatment of degenerative & inflamatory diseases” (priority 2006, published 2009) are described below.

The target in this assay is PDE1A (Homo sapiens, UniProt P54750). In words: PDE1A dose response, Cyclic Nucleotide Phosphodiesterase Assay Kit from Biomol (colorimetric). The format is biochemical. Conditions: purified PDE1A enzyme, 100 μM cAMP. In a few lines: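 Purified PDE1A hydrolysed 100 μM cAMP with 5′-nucleotidase in Tris 20 mM pH 7.4 with calmodulin, Ca2+, Mg2+, 45 min at 37° C. Released phosphate read by malachite-green absorbance at 615 nm. Duplicate 8-point 1/3 dilutions from 20 μM, 1% DMSO; 10 μM vardenafil defined 100% inhibition.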
With `CCCCCS(=O)(=O)N1CC(c2nc3c(cnn3C3CCCCC3)c(=O)[nH]2)C1` [Example 104, 1-cyclohexyl-6-(1-(pentylsulfonyl)azetidin-3-yl)-1H-pyrazolo[3,4-d]pyrimidin-4(5H)-one], the IC50 was 1000 to 1500 nM.
The figure for `O=c1[nH]c(C2CCCN(S(=O)(=O)c3ccc(OC(F)(F)F)cc3)C2)nc2c1cnn2C1CCCCC1` (centres unmarked) [Example 105, 1-cyclohexyl-6-(1-(4-(trifluoromethoxy)phenylsulfonyl)piperidin-3-yl)-1H-pyrazolo[3,4-d]pyrimidin-4(5H)-one] is 1000 to 1500 nM.
Molecule `Cc1nn(C2CCCCC2)c2nc(C3CCCN(S(=O)(=O)c4ccccc4)C3)[nH]c(=O)c12` (centres unmarked) [Example 106, 1-cyclohexyl-3-methyl-6-(1-(phenylsulfonyl)piperidin-3-yl)-1H-pyrazolo[3,4-d]pyrimidin-4(5H)-one] had an IC50 of 1000 to 1500 nM.
Consider `Cc1nn(C2CCCCC2)c2nc(C3CCCN(S(=O)(=O)c4ccccc4OC(F)(F)F)C3)[nH]c(=O)c12` (centres unmarked) [Example 107, 1-cyclohexyl-3-methyl-6-(1-(2-(trifluoromethoxy)phenylsulfonyl)piperidin-3-yl)-1H-pyrazolo[3,4-d]pyrimidin-4(5H)-one], for which the IC50 is 1000 to 1500 nM.
The value for `CC(C)N1CC(n2ncc3c(=O)[nH]c(C4CN(C(=O)Nc5ccc(F)cc5)C4)nc32)C1` [Example 108, N-(4-fluorophenyl)-3-(1-(1-isopropylazetidin-3-yl)-4-oxo-4,5-dihydro-1H-pyrazolo[3,4-d]pyrimidin-6-yl)azetidine-1-carboxamide] was 1000 to 1500 nM.
The figure for `Cc1nn(-c2ccccc2)c2nc(C3CCCN(C(=O)c4ccc(C#N)cc4)C3)[nH]c(=O)c12` (centres unmarked) [Example 109, 4-(3-(3-methyl-4-oxo-1-phenyl-4,5-dihydro-1H-pyrazolo[3,4-d]pyrimidin-6-yl)piperidine-1-carbonyl)benzonitrile] is 1000 to 1500 nM.
The value for `N#Cc1ccc(C(=O)N2CCCC(c3nc4c(cnn4-c4ccccc4)c(=O)[nH]3)C2)cc1` (centres unmarked) [Example 110, 4-(3-(4-oxo-1-phenyl-4,5-dihydro-1H-pyrazolo[3,4-d]pyrimidin-6-yl)piperidine-1-carbonyl)benzonitrile] was 1000 to 1500 nM; that for `CCCn1nc(C)c2c(=O)[nH]c(C3CCCN(S(=O)(=O)c4ccc(OC)cc4)C3)nc21` (centres unmarked) [Example 111, 6-(1-(4-methoxyphenylsulfonyl)piperidin-3-yl)-3-methyl-1-propyl-1H-pyrazolo[3,4-d]pyrimidin-4(5H)-one] was 1000 to 1500 nM.
As for `Cc1nn(C2CCCCC2)c2nc(C3CCCN(C(=O)CCc4ccccc4)C3)[nH]c(=O)c12` (centres unmarked) [Example 112, 1-cyclohexyl-3-methyl-6-(1-(3-phenylpropanoyl)piperidin-3-yl)-1H-pyrazolo[3,4-d]pyrimidin-4(5H)-one], the IC50 lay within 1000 to 1500 nM.
For `CC(=O)Nc1ccc(C(=O)N2CCCC(c3nc4c(c(C)nn4C4CCCCC4)c(=O)[nH]3)C2)cc1` (centres unmarked) [Example 113, N-(4-(3-(1-cyclohexyl-3-methyl-4-oxo-4,5-dihydro-1H-pyrazolo[3,4-d]pyrimidin-6-yl)piperidine-1-carbonyl)phenyl)acetamide], the IC50 was in the range of 1000 to 1500 nM.
The figure for `CCc1nn(C2CCCCC2)c2nc(C3CN(C(=O)Nc4ccccc4OC(F)F)C3)[nH]c(=O)c12` [Example 114, 3-(1-cyclohexyl-3-ethyl-4-oxo-4,5-dihydro-1H-pyrazolo[3,4-d]pyrimidin-6-yl)-N-(2-(difluoromethoxy)phenyl)azetidine-1-carboxamide] is 501 to 1000 nM; for `Cc1nn(C2CCCCC2)c2nc(C3CN(C(=O)OCc4ccccc4)C3)[nH]c(=O)c12` [Example 115, Benzyl 3-(1-cyclohexyl-3-methyl-4-oxo-4,5-dihydro-1H-pyrazolo[3,4-d]pyrimidin-6-yl)azetidine-1-carboxylate] it is 101 to 500 nM.
The value for `CC(C)N1CCN(c2ccc(OC(=O)N3CC(c4nc5c(cnn5C(C)(C)C)c(=O)[nH]4)C3)cc2)CC1` [Example 116, 4-(4-Isopropylpiperazin-1-yl)phenyl 3-(1-tert-butyl-4-oxo-4,5-dihydro-1H-pyrazolo [3,4-d]pyrimidin-6-yl)azetidine-1-carboxylate] was 1 to 100 nM; that for `CC(C)(C)n1ncc2c(=O)[nH]c(C3CN(C(=O)OCC4CCCCC4)C3)nc21` [Example 117, cyclohexylmethyl 3-(1-tert-butyl-4-oxo-4,5-dihydro-1H-pyrazolo[3,4-d]pyrimidin-6-yl)azetidine-1-carboxylate] was 1 to 100 nM; that for `CC(C)(C)n1ncc2c(=O)[nH]c(C3CN(C(=O)Oc4cccc(Cl)c4)C3)nc21` [Example 118, 3-chlorophenyl 3-(1-tert-butyl-4-oxo-4,5-dihydro-1H-pyrazolo[3,4-d]pyrimidin-6-yl)azetidine-1-carboxylate] was 1 to 100 nM.
Consider `CC(C)(C)n1ncc2c(=O)[nH]c(C3CN(C(=O)Oc4ccc5c(c4)OCO5)C3)nc21` [Example 119, benzo[d][1,3]dioxol-5-yl 3-(1-tert-butyl-4-oxo-4,5-dihydro-1H-pyrazolo[3,4-d]pyrimidin-6-yl)azetidine-1-carboxylate], for which the IC50 lay in the range of 1 to 100 nM.
`O=C(OCC1CCCCC1)N1CC(c2nc3c(cnn3C3CCCCC3)c(=O)[nH]2)C1` [Example 120, cyclohexylmethyl 3-(1-cyclohexyl-4-oxo-4,5-dihydro-1H-pyrazolo[3,4-d]pyrimidin-6-yl)azetidine-1-carboxylate] registered an IC50 of 1 to 100 nM.
The value for `O=C(Oc1ccc(F)cc1)N1CC(c2nc3c(cnn3C3CCCCC3)c(=O)[nH]2)C1` [Example 121, 4-fluorophenyl 3-(1-cyclohexyl-4-oxo-4,5-dihydro-1H-pyrazolo[3,4-d]pyrimidin-6-yl)azetidine-1-carboxylate] was 1 to 100 nM.
The value for `CC(C)(C)COC(=O)N1CC(c2nc3c(cnn3C3CCCCC3)c(=O)[nH]2)C1` [Example 122, neopentyl 3-(1-cyclohexyl-4-oxo-4,5-dihydro-1H-pyrazolo[3,4-d]pyrimidin-6-yl)azetidine-1-carboxylate] was 101 to 500 nM; that for `Cc1nn(C2CCCCC2)c2nc(C3CN(C(=O)OC(C)(C)C)C3)[nH]c(=O)c12` [Example 123, tert-butyl 3-(1-cyclohexyl-3-methyl-4-oxo-4,5-dihydro-1H-pyrazolo[3,4-d]pyrimidin-6-yl)azetidine-1-carboxylate] was 101 to 500 nM; that for `Cc1nn(C2CCCCC2)c2nc(C3CCCN(C(=O)Oc4ccccc4)C3)[nH]c(=O)c12` (centres unmarked) [Example 124, phenyl 3-(1-cyclohexyl-3-methyl-4-oxo-4,5-dihydro-1H-pyrazolo[3,4-d]pyrimidin-6-yl)piperidine-1-carboxylate] was 501 to 1000 nM.
On to `O=c1[nH]c(C2CN(c3nc4ccccc4[nH]3)C2)nc2c1cnn2C1CCCCC1` [Example 125, 1-Cyclohexyl-6-(1-(1H-benzo[d]imidazol-2-yl)azetidin-3-yl)-1H-pyrazolo[3,4-d]pyrimidin-4-(5H)-one], for which the IC50 lay within 1 to 100 nM.
In the case of `CC(C)(C)n1ncc2c(=O)[nH]c(C3CN(c4nc5ccc(Br)cc5[nH]4)C3)nc21` [Example 126, 6-(1-(6-bromo-1H-benzo[d]imidazol-2-yl)azetidin-3-yl)-1-tert-butyl-1H-pyrazolo[3,4-d]pyrimidin-4(5H)-one], the IC50 lay within 1 to 100 nM.
